Assay results reported in patent US20220125765A1, “PHARMACEUTICAL COMBINATIONS COMPRISING MEBENDAZOLE AND A STRONG OR MODERATE CYP1A2 INHIBITOR” (ZEPHAPHARM LTD, priority 2019, published 2022).
Read-outs that look alike come from different tables or passages of the source. One block for each compound: values may come before it.

Assays:
[1] = Stability in human liver microsomes without and with cimetidine or furafylline (Example 4); type: in vitro ADME; details: substrate 1 μM; for half-life at 1 μM / microsomal CLint at 1 μM: human, liver microsomes
Description: A minus cofactor control incubation was included for each compound tested where 0.1 M phosphate buffer pH 7.4 was added instead of NADPH (minus NADPH). […] The samples were analysed for mebendazole or phenacetin using LC-MS/MS.
A minus cofactor control incubation was included for each compound tested where 0.1 M phosphate buffer pH 7.4 was added instead of cofactor (minus NADPH). […] The samples were analysed for mebendazole or phenacetin using LC-MS/MS.

[2] = Stability in human cryopreserved hepatocytes without and with cimetidine or furafylline (Example 5); type: in vitro ADME; details: human, substrate 1 μM, read-out: t1/2
Description: The final incubation volume was 500 μL. Two control compounds were included with each species, alongside appropriate vehicle control.
The samples were analysed for mebendazole or ethoxycoumarin using LC-MS/MS.
The final incubation volume was 500 μL.
A positive control compound, ethoxycoumarin, for CYP1A2 was included. […] The samples were analysed for mebendazole or ethoxycoumarin using LC-MS/MS.

[3] = Ricobendazole microsomal metabolic stability without and with cimetidine or furafylline (Example 8); type: in vitro ADME; details: human, liver microsomes; for half-life at 0.1 μM: read-out: t½
Description: Incubation in the absence of NADPH was also performed to assess non-CYP mediated stability. Appropriate control compounds were also incubated.
A minus cofactor control incubation was included for each compound tested where 0.1 M phosphate buffer pH 7.4 was added instead of NADPH (minus NADPH). […] A control compound (phenacetin) was included (incubated without and with inhibitors as described above). All incubations were performed singularly for each test compound. Each incubation was carried out for 0, 5, 15, 30 and 45 min. The control (minus NADPH) was incubated for 45 min only.

CYP3A4 = CYP3A4 (Homo sapiens, UniProt P08684); experiment: Cytochrome P450 reaction phenotyping, recombinant CYP3A4 (Bactosomes); details: human, recombinant enzyme, pH 7.4
Description: (§1) Incubations were also performed using control Bactosomes™ (no P450 enzymes present) to reveal any non-enzymatic degradation. Control compounds known to be metabolised specifically by each P450 isoform were included. All incubations were performed singularly for each test compound.
(§2) Incubations were also performed using control Bactosomes™ (no P450 enzymes present) to reveal any non-enzymatic degradation. Control compounds known to be metabolised specifically by each P450 isoform were included. All incubations were performed singularly for each test compound. […] The reactions were stopped by transferring an aliquot of incubate to quench solvent at the appropriate time points, in a 1:3 ratio. The termination plates were centrifuged at 3,000 rpm for 20 min at 4° C. to precipitate the protein.

CYP2C19 = CYP2C19 (Homo sapiens, UniProt P33261); experiment: Cytochrome P450 reaction phenotyping, recombinant CYP2C19 (Bactosomes); details: human, recombinant enzyme, pH 7.4
Description: as §1, §2

CYP2C8 = molecular target: T1, CYP2C8 (Homo sapiens, UniProt P10632); experiment: Cytochrome P450 reaction phenotyping, recombinant CYP2C8 (Bactosomes); details: CYP2C8, substrate 1 μM
T1 sequence (P10632 1-490): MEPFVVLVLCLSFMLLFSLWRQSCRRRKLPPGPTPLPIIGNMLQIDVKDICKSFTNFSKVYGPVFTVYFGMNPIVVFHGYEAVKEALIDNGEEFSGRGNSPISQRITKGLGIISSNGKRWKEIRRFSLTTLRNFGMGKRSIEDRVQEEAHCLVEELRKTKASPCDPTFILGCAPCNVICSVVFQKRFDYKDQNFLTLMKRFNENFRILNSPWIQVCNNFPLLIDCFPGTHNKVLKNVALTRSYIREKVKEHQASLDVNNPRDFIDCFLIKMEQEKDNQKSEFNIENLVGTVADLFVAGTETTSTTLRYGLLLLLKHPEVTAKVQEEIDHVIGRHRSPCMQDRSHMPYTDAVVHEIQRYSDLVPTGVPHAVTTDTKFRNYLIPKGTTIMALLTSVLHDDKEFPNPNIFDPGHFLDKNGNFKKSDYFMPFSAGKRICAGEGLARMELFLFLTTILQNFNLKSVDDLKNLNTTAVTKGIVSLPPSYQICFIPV
Description: as §1, §2

CYP2C9 = CYP2C9 (Homo sapiens, UniProt P11712); experiment: Cytochrome P450 reaction phenotyping, recombinant CYP2C9 (Bactosomes); details: human, recombinant enzyme, pH 7.4
Description: as §1, §2

CYP2D6 = CYP2D6 (Homo sapiens, UniProt P10635); experiment: Cytochrome P450 reaction phenotyping, recombinant CYP2D6 (Bactosomes); details: human, recombinant enzyme, pH 7.4
Description: as §1, §2

CYP1A2 = molecular target: T2, CYP1A2 (Homo sapiens, UniProt P05177); experiment: Cytochrome P450 reaction phenotyping, recombinant CYP1A2 (Bactosomes)
T2 sequence (P05177 1-516): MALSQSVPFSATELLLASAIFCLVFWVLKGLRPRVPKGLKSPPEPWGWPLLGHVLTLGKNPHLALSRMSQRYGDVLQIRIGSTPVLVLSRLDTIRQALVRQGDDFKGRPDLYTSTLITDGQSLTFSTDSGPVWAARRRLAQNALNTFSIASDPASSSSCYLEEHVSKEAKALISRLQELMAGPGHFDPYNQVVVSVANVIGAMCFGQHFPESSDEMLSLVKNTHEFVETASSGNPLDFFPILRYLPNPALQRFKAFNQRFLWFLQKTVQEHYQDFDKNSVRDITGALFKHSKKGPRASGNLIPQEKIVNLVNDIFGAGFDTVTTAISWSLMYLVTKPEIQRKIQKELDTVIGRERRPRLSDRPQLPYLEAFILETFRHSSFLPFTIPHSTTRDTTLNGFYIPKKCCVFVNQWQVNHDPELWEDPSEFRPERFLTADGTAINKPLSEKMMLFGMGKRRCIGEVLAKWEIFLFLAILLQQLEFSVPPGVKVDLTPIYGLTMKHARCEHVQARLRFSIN
Description: as §1, §2

CYP2B6 = molecular target: T3, CYP2B6 (Homo sapiens, UniProt P20813); experiment: Cytochrome P450 reaction phenotyping, recombinant CYP2B6 (Bactosomes); details: CYP2B6, substrate 1 μM
T3 sequence (P20813 1-491): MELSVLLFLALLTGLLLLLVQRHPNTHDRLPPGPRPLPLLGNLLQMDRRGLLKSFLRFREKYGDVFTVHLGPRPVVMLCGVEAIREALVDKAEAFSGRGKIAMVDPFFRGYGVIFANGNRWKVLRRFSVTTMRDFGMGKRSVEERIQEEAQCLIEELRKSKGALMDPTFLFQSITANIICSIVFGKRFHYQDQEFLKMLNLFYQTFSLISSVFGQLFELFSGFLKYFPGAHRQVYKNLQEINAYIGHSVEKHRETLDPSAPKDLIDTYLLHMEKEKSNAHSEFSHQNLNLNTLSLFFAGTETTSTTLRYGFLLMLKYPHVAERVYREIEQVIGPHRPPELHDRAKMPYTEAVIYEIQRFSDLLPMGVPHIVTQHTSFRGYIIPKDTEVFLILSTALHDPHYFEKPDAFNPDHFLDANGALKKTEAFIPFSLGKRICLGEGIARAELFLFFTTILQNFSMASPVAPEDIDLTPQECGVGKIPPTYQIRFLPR
Description: as §1, §2

[4] = Stability in human cryopreserved hepatocytes without and with cimetidine or thiabendazole (Example 6); details: human, cryopreserved hepatocytes (suspension), substrate 1 μM, no inhibitor
Description: Mebendazole (1 μM) was incubated with cryopreserved human hepatocytes for 60 min in the absence and presence of cimetidine at 30, 100 and 300 μM) and thiabendazole at 10, 30 and 100 μM and samples taken at the required time points. The amount of test compound remaining at each time point was analysed by LC-MS/MS. Appropriate control compounds were also incubated along with ethoxycoumarin, which was incubated in the absence and presence of cimetidine and thiabendazole.
The final incubation volume was 500 μL. Two control compounds were included, alongside appropriate vehicle control. A positive control compound, ethoxycoumarin, for CYP1A2 was included. The positive control compound was incubated without inhibitor and in the presence of each inhibitor. The reactions were stopped by transferring 50 μL of incubate to 100 μL acetonitrile containing internal standard at the appropriate time points (0, 5, 10, 20, 40 and 60 min). The termination plates were centrifuged at 2500 rpm at 4° C. for 30 min to precipitate the protein.

[5] = pH 7.4, with cimetidine 30 μM, plus 30 μM cimetidine
[6] = pH 7.4, with cimetidine 100 μM, plus 100 μM cimetidine
[7] = pH 7.4, with cimetidine 300 μM, plus 300 μM cimetidine
[8] = cryopreserved hepatocytes (suspension), no inhibitor

Chain of CYP2D6 (P10635 whole entry): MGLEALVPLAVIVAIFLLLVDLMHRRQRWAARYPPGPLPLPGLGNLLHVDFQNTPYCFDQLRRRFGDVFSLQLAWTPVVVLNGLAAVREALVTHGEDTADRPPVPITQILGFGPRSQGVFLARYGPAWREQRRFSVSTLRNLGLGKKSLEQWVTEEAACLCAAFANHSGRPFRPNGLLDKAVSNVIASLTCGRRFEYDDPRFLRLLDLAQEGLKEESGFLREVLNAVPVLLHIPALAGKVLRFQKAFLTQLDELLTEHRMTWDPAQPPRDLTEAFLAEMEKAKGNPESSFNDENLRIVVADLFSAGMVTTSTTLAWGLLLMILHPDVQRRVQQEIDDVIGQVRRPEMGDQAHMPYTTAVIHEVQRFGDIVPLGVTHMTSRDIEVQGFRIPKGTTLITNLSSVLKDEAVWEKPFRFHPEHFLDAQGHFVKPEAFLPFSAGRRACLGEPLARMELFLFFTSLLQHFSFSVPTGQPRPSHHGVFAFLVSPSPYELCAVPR
Chain of CYP2C19 (P33261 whole entry): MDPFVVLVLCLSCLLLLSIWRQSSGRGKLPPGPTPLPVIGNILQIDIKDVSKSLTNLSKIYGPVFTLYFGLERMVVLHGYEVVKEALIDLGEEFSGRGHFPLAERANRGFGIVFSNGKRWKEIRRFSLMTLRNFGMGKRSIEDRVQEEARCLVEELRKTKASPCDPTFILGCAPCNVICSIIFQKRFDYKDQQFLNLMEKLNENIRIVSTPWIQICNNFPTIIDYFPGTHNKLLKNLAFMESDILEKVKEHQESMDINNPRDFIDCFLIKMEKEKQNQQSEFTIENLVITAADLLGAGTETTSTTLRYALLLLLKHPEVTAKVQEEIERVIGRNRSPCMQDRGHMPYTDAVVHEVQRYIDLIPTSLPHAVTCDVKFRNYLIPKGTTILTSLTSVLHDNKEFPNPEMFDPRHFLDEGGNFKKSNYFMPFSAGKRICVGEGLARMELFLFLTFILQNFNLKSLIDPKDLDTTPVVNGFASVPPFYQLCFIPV
Chain of CYP2C9 (P11712 whole entry): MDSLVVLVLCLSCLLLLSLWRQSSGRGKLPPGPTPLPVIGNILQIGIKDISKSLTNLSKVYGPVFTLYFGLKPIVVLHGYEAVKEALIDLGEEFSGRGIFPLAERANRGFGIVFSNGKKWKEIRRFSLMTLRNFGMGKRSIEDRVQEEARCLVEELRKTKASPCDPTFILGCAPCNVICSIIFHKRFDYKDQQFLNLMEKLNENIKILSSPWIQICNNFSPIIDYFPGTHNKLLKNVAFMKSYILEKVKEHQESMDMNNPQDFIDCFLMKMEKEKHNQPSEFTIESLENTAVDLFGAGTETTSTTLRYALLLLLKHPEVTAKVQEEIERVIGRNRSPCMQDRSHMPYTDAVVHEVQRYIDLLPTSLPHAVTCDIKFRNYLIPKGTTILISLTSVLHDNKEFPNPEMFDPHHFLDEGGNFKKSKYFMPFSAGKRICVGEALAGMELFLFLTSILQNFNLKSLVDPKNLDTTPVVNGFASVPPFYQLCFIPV
Chain of CYP3A4 (P08684 whole entry, canonical isoform): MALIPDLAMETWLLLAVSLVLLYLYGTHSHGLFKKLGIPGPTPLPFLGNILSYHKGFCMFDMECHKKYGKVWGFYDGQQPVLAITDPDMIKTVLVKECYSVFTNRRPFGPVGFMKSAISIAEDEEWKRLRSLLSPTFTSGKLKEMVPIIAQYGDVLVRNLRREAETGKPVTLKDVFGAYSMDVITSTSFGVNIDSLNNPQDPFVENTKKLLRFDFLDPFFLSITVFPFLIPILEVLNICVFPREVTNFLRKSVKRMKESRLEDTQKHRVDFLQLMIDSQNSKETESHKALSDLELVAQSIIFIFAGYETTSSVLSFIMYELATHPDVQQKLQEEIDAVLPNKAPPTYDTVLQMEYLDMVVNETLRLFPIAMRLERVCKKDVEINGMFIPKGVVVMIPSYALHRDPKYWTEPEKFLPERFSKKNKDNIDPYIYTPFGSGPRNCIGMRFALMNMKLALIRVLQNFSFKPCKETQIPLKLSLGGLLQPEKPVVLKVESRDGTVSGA

half-life at 1 μM [1, 5]: 1.09 h
microsomal CLint at 1 μM [1, 5]: 21.2 µL/min/mg
half-life at 1 μM [1, 6]: 1.32 h
microsomal CLint at 1 μM [1, 6]: 17.6 µL/min/mg
half-life at 1 μM [1, 7]: 1.66 h
microsomal CLint at 1 μM [1, 7]: 13.9 µL/min/mg
microsomal CLint at 1 μM ([1]; pH 7.4, with furafylline 3 μM, plus 3 μM furafylline): 3 to 49 µL/min/mg
microsomal CLint at 1 μM ([1]; pH 7.4, with furafylline 10 μM, plus 10 μM furafylline): 2 to 58 µL/min/mg
microsomal CLint at 1 μM ([1]; pH 7.4, with furafylline 30 μM, plus 30 μM furafylline): 2.71 µL/min/mg
half-life at 1 μM ([1]; pH 7.4, no inhibitor): 1.03 h
microsomal CLint at 1 μM ([1]; pH 7.4, no inhibitor): 22.4 µL/min/mg
CLint ([1]; plus 3 μM furafylline): 3.49 μL/min/mg protein
CLint ([1]; plus 10 μM furafylline): 2.58 μL/min/mg protein
half-life at 1 μM [2, 8]: 0.215 h
half-life at 1 μM ([2]; cryopreserved hepatocytes, with cimetidine 30 μM, cimetidine 30 μM): 0.223 h
half-life at 1 μM ([2]; cryopreserved hepatocytes, with cimetidine 100 μM, cimetidine 100 μM): 0.262 h
half-life at 1 μM ([2]; cryopreserved hepatocytes, with cimetidine 300 μM, cimetidine 300 μM): 0.313 h
half-life at 1 μM ([2]; cryopreserved hepatocytes, with furafylline 3 μM, furafylline 3 μM): 0.993 h
half-life at 1 μM ([2]; cryopreserved hepatocytes, with furafylline 10 μM, furafylline 10 μM): 1.49 h
half-life at 1 μM ([2]; cryopreserved hepatocytes, with furafylline 30 μM, furafylline 30 μM): 1.83 h
Compound: CCOc1ccc(NC(C)=O)cc1 [Phenacetin]

Compound: CCC[S+]([O-])c1ccc2[nH]c(NC(=O)OC)nc2c1 (centres unmarked) [Ricobendazole, albendazole sulphoxide]
microsomal CLint at 0.1 μM ([3]; pH 7.4, with cimetidine 30 μM, 0.1 μM, 1 mg/mL, cimetidine 30 μM, read-out: CLint): 3.15 ± 1.24 µL/min/mg
half-life at 0.1 μM ([3]; pH 7.4, with cimetidine 30 μM, 0.1 μM, 1 mg/mL, cimetidine 30 μM): 3.67 h
microsomal CLint at 0.1 μM ([3]; pH 7.4, with cimetidine 100 μM, 0.1 μM, 1 mg/mL, cimetidine 100 μM, read-out: CLint): 3.43 ± 1.56 µL/min/mg
half-life at 0.1 μM ([3]; pH 7.4, with cimetidine 100 μM, 0.1 μM, 1 mg/mL, cimetidine 100 μM): 3.37 h
microsomal CLint at 0.1 μM ([3]; pH 7.4, with cimetidine 300 μM, 0.1 μM, 1 mg/mL, cimetidine 300 μM, read-out: CLint): 3.54 ± 1.09 µL/min/mg
half-life at 0.1 μM ([3]; pH 7.4, with cimetidine 300 μM, 0.1 μM, 1 mg/mL, cimetidine 300 μM): 3.27 h
microsomal CLint at 0.1 μM ([3]; pH 7.4, with furafylline 3 μM, read-out: CLint): 1.27 ± 2.47 µL/min/mg
half-life at 0.1 μM ([3]; pH 7.4, with furafylline 3 μM): 9.08 h
microsomal CLint at 0.1 μM ([3]; pH 7.4, with furafylline 10 μM, read-out: CLint): 4.31 ± 2.48 µL/min/mg
half-life at 0.1 μM ([3]; pH 7.4, with furafylline 10 μM): 2.68 h
microsomal CLint at 0.1 μM ([3]; pH 7.4, with furafylline 30 μM, read-out: CLint): 2.92 ± 1.75 µL/min/mg
half-life at 0.1 μM ([3]; pH 7.4, with furafylline 30 μM): 3.95 h
microsomal CLint at 0.1 μM ([3]; pH 7.4, 0.1 μM, 1 mg/mL, no inhibitor, read-out: CLint): 2.83 ± 1.76 µL/min/mg
half-life at 0.1 μM ([3]; pH 7.4, 0.1 μM, 1 mg/mL, no inhibitor): 4.08 h
microsomal CLint at 0.1 μM ([3]; optimisation, 0.1 μM and 1 mg/mL protein, read-out: intrinsic clearance): 6.63 ± 1.84 µL/min/mg
microsomal CLint at 1 μM ([3]; optimisation, 1 μM and 0.5 mg/mL protein, read-out: intrinsic clearance): 4.39 ± 2.77 µL/min/mg
half-life at 1 μM (CYP3A4): 8.15 ± 11.4 h
half-life at 1 μM (CYP2C19): 10.3 ± 10.8 h
metabolism by recombinant enzyme (CYP2C8): not metabolised
half-life at 1 μM (CYP2C9): 4.53 ± 2.67 h
half-life at 1 μM (CYP2D6): 7.75 ± 4.55 h
% remaining (CYP1A2; CYP1A2, substrate 1 μM, 45 min): 85%
half-life at 1 μM (CYP1A2; human, recombinant enzyme, pH 7.4): 4 ± 0.635 h
metabolism by recombinant enzyme (CYP2B6): not metabolised

half-life at 1 μM [2, 8]: 0.133 h
hepatocyte CLint at 1 µM ([4]; CLint): 229 µL/min/1e6 cells
half-life at 1 μM ([4]; t½): 6.05 min
Compound: O=c1ccc2ccc(O)cc2o1 [Umbelliferone]
